Literature values in patent publication US12576020B2, “Increasing the stability of agents for the treatment of keratinous material” (Henkel AG & Co. KGaA, priority 2019, dated 2026).

Details: 25° C.

solubility in water (in words) | Compound | solubility in water
– | O=C([O-])c1c(Cl)c(Cl)c(Cl)c(Cl)c1-c1c2c(Br)cc(=O)c(Br)c-2oc2c(Br)c(O)cc(Br)c12.O=C([O-])c1c(Cl)c(Cl)c(Cl)c(Cl)c1-c1c2c(Br)cc(=O)c(Br)c-2oc2c(Br)c(O)cc(Br)c12.[Na+].[Na+] [Acid Red 92, disodium salt of 3,4,5,6-tetrachloro-2-(1,4,5,8-tetrabromo-6-hydroxy-3-oxoxanthen-9-yl)benzoic acid] | greater than 10 g/L
– | Nc1cc(S(=O)(=O)[O-])cc2cc(S(=O)(=O)[O-])c(N=Nc3ccccc3)c(O)c12.[Na+].[Na+] [Acid Red 33, disodium salt of 5-amino-4-hydroxy-3-(phenylazo)-naphthalene-2,7-disulphonate] | 2500 µg/mL
highly soluble | O=C([O-])C1=NN(c2ccc(S(=O)(=O)[O-])cc2)C(=O)C1N=Nc1ccc(S(=O)(=O)[O-])cc1.[Na+].[Na+].[Na+] (stereo not shown) [Acid Yellow 23, tisodium salt of 4,5-dihydro-5-oxo-1-(4-sulfophenyl)-4-((4-sulfophenyl)azo)-1H-pyrazole-3-carboxylic acid] | –
– | O=S(=O)([O-])c1ccc(N=Nc2c(O)ccc3ccccc23)cc1.[Na+] [Acid Orange 7, sodium salt of 4-[(2-hydroxy-1-naphthyl)azo]benzene sulphonate] | more than 7 g/L
